Data as given in ChEMBL document CHEMBL4825691, “Antimicrobial, modulatory, and antibiofilm activity of tt-farnesol on bacterial and fungal strains of importance to human health” (2021).
In brackets after ≈: the same amount, converted by molar mass.

Key:
Format in all cases: functional
Streptococcus pyogenes [1] = assay: Antibiofilm activity against drug-resistant Streptococcus pyogenes ATCC 19615 assessed as inhibition of biofilm formation incubated for 24 hrs by crystal violet staining based microtiter plate method
Enterococcus faecalis [2] = assay: Antibacterial activity against Enterococcus faecalis ATCC 29212 assessed as inhibition of bacterial growth incubated for 24 hrs by microdilution assay
Streptococcus mutans [3] = assay: Ratio of MBC to MIC against Streptococcus mutans ATCC 25175
[4] = test system: Staphylococcus epidermidis; assay: Antimicrobial activity against Staphylococcus epidermidis ATCC 12228 assessed assessed as reduction in bacterial growth at 1/8 times of drug MIC in the presence of Oxacillin by microdilution method
Streptococcus pyogenes [5] = assay: Antibacterial activity against Streptococcus pyogenes ATCC 19615 assessed as inhibition of bacterial growth incubated for 24 hrs by microdilution assay
Acinetobacter baumannii = assay: Antibacterial activity against Acinetobacter baumannii ATCC 19606 assessed as inhibition of bacterial growth incubated for 24 hrs by microdilution assay; conditions: ATCC 19606 = CIP 70.34 = JCM 6841
[6] = test system: Staphylococcus epidermidis; assay: Antibacterial activity against Staphylococcus epidermidis 70 D assessed as inhibition of bacterial growth incubated for 24 hrs by microdilution assay
[7] = test system: Staphylococcus epidermidis; assay: Bactericidal activity against Staphylococcus epidermidis 70 D assessed as bacterial killing incubated for 24 hrs by microdilution assay
Enterococcus durans [8] = assay: Antimicrobial activity against Enterococcus durans BIO 0114 assessed assessed as reduction in bacterial growth at 1/8 times of drug MIC in the presence of Teicoplanin by microdilution method
Staphylococcus aureus [9] = assay: Antimicrobial activity against Staphylococcus aureus MED 55 assessed assessed as reduction in bacterial growth at 1/4 times of drug MIC in the presence of Oxacillin by microdilution method
Staphylococcus aureus [10] = assay: Bactericidal activity against Staphylococcus aureus ATCC 43300 assessed as bacterial killing incubated for 24 hrs by microdilution assay
Streptococcus mutans [11] = assay: Antibacterial activity against Streptococcus mutans ATCC 25175 assessed as inhibition of bacterial growth incubated for 24 hrs by microdilution assay
Streptococcus agalactiae [12] = assay: Antimicrobial activity against Streptococcus agalactiae ATCC 13813 assessed assessed as reduction in bacterial growth at 1/8 times of drug MIC in the presence of Oxacillin by microdilution method
Staphylococcus aureus [13] = assay: Antimicrobial activity against […] assessed assessed as reduction in bacterial growth at 1/4 times of drug MIC in the presence of Oxacillin by microdilution method
[14] = test system: Staphylococcus epidermidis; assay: Antibiofilm activity against drug-resistant Staphylococcus epidermidis 70 D assessed as inhibition of biofilm formation incubated for 24 hrs by crystal violet staining based microtiter plate method
Klebsiella pneumoniae [15] = assay: Antibacterial activity against Klebsiella pneumoniae ATCC 700603 assessed as inhibition of bacterial growth incubated for 24 hrs by microdilution assay
Streptococcus pyogenes [16] = assay: Ratio of MBC to MIC against Streptococcus pyogenes ATCC 19615
Enterococcus durans [17] = assay: Antimicrobial activity against Enterococcus durans BIO 0114 assessed assessed as reduction in bacterial growth at 1/4 times of drug MIC in the presence of Teicoplanin by microdilution method
[18] = test system: Staphylococcus epidermidis; assay: Antibacterial activity against Staphylococcus epidermidis ATCC 12228 assessed as inhibition of bacterial growth incubated for 24 hrs by microdilution assay
[19] = test system: Staphylococcus epidermidis; assay: Antimicrobial activity against Staphylococcus epidermidis 70 D assessed assessed as reduction in bacterial growth at 1/8 times of drug MIC in the presence of vancomycin by microdilution method
Pseudomonas aeruginosa = assay: Antibacterial activity against Pseudomonas aeruginosa ATCC 27853 assessed as inhibition of bacterial growth incubated for 24 hrs by microdilution assay
Escherichia coli [20] = assay: Antibacterial activity against Escherichia coli EHEC 933 assessed as inhibition of bacterial growth incubated for 24 hrs by microdilution assay
Salmonella typhimurium = assay: Antibacterial activity against Salmonella enterica subsp. enterica serovar Typhimurium ATCC 14028 assessed as inhibition of bacterial growth incubated for 24 hrs by microdilution assay
Staphylococcus aureus [21] = assay: Antibiofilm activity against drug-resistant Staphylococcus aureus MED 55 assessed as inhibition of biofilm formation incubated for 24 hrs by crystal violet staining based microtiter plate method
Escherichia coli [22] = assay: Antibacterial activity against Escherichia coli ATCC 25922 assessed as inhibition of bacterial growth incubated for 24 hrs by microdilution assay
Klebsiella pneumoniae [23] = assay: Antibacterial activity against Klebsiella pneumoniae ATCC 1705 assessed as inhibition of bacterial growth incubated for 24 hrs by microdilution assay
Staphylococcus aureus [24] = assay: Antimicrobial activity against Staphylococcus aureus MED 55 assessed assessed as reduction in bacterial growth at 1/4 times of drug MIC in the presence of vancomycin by microdilution method
Enterococcus faecalis [25] = assay: Ratio of MBC to MIC against Enterococcus faecalis ATCC 51299
Streptococcus agalactiae [26] = assay: Ratio of MBC to MIC against Streptococcus agalactiae ATCC 13813
[27] = test system: Staphylococcus epidermidis; assay: Ratio of MBC to MIC against Staphylococcus epidermidis ATCC 12228
Streptococcus sobrinus [28] = assay: Antimicrobial activity against Streptococcus sobrinus ATCC 27351 assessed assessed as reduction in bacterial growth at 1/4 times of drug MIC in the presence of Ampicillin by microdilution method
Streptococcus sobrinus [29] = assay: Antibiofilm activity against drug-resistant Streptococcus sobrinus ATCC 27351 assessed as inhibition of biofilm formation incubated for 24 hrs by crystal violet staining based microtiter plate method
[30] = test system: Staphylococcus epidermidis; assay: Ratio of MBC to MIC against Staphylococcus epidermidis 70 D
Enterococcus faecalis [31] = assay: Antibacterial activity against Enterococcus faecalis ATCC 51299 assessed as inhibition of bacterial growth incubated for 24 hrs by microdilution assay
Escherichia coli [32] = assay: Antibacterial activity against Escherichia coli EPEC E234969 assessed as inhibition of bacterial growth incubated for 24 hrs by microdilution assay
Shigella flexneri = assay: Antibacterial activity against Shigella flexneri CCCD S006 assessed as inhibition of bacterial growth incubated for 24 hrs by microdilution assay
Escherichia coli [33] = assay: Antibacterial activity against Escherichia coli STEC 2C1 assessed as inhibition of bacterial growth incubated for 24 hrs by microdilution assay
Serratia marcescens = assay: Antibacterial activity against Serratia marcescens ATCC 13880 assessed as inhibition of bacterial growth incubated for 24 hrs by microdilution assay; conditions: subsp. marcescens ATCC 13880
Enterococcus faecalis [34] = assay: Bactericidal activity against Enterococcus faecalis ATCC 51299 assessed as bacterial killing incubated for 24 hrs by microdilution assay
Enterococcus faecalis [35] = assay: Antimicrobial activity against Enterococcus faecalis ATCC 51299 assessed assessed as reduction in bacterial growth at 1/8 times of drug MIC in the presence of Teicoplanin by microdilution method
Staphylococcus aureus [36] = assay: Bactericidal activity against Staphylococcus aureus MED 55 assessed as bacterial killing incubated for 24 hrs by microdilution assay
Staphylococcus aureus [37] = assay: Antibacterial activity against Staphylococcus aureus ATCC 29213 assessed as inhibition of bacterial growth incubated for 24 hrs by microdilution assay
Streptococcus agalactiae [38] = assay: Antimicrobial activity against Streptococcus agalactiae ATCC 13813 assessed assessed as reduction in bacterial growth at 1/4 times of drug MIC in the presence of Oxacillin by microdilution method

For `CC(C)=CCC/C(C)=C/CC/C(C)=C/CO` [FARNESOL], the MIC (Streptococcus pyogenes [1]) was 16 µg/mL (≈ 72 µM), the MIC (Enterococcus faecalis [2]) was over 1020 µg/mL and the Ratio (Streptococcus mutans [3]) was 4. It also gave an MIC [4] of 0.25 µg/mL, an MIC (Streptococcus pyogenes [5]) of 16 µg/mL (≈ 72 µM) and an MIC (Acinetobacter baumannii) of over 1020 µg/mL. For the same molecule, the MIC [6] was 64 µg/mL (≈ 288 µM), the MBC [7] was 128 µg/mL (≈ 576 µM) and the MIC (Enterococcus durans [8]) was 1 µg/mL. It also gave an MIC (Staphylococcus aureus [9]) of 128 µg/mL, an MBC (Staphylococcus aureus [10]) of 512 µg/mL (≈ 2300 µM) and an MIC (Streptococcus mutans [11]) of 128 µg/mL (≈ 576 µM). It also gave an MIC (Streptococcus agalactiae [12]) of 0.25 µg/mL, an MIC (Staphylococcus aureus [13]) of 8 µg/mL and an MIC [14] of 64 µg/mL (≈ 288 µM). It also gave an MIC (Klebsiella pneumoniae [15]) of over 1020 µg/mL, a Ratio (Streptococcus pyogenes [16]) of 4 and an MIC (Enterococcus durans [17]) of 1 µg/mL. It also gave an MIC [18] of 32 µg/mL (≈ 144 µM), an MIC [19] of 2 µg/mL and an MIC (Pseudomonas aeruginosa) of over 1020 µg/mL. It also gave an MIC (Escherichia coli [20]) of over 1020 µg/mL, an MIC (Salmonella typhimurium) of over 1020 µg/mL and an MIC (Staphylococcus aureus [21]) of 2 µg/mL (≈ 8.99 µM). It also gave an MIC (Escherichia coli [22]) of over 1020 µg/mL, an MIC (Klebsiella pneumoniae [23]) of over 1020 µg/mL and an MIC (Staphylococcus aureus [24]) of 2 µg/mL. It also gave a Ratio (Enterococcus faecalis [25]) of over 4, a Ratio (Streptococcus agalactiae [26]) of 2 and a Ratio [27] of over 4. For the same molecule, the MIC (Streptococcus sobrinus [28]) was 0.125 µg/mL, the MIC (Streptococcus sobrinus [29]) was 8 µg/mL (≈ 36 µM) and the Ratio [30] was 2. The MIC (Enterococcus faecalis [31]) was 128 µg/mL (≈ 576 µM), the MIC (Escherichia coli [32]) was over 1020 µg/mL and the MIC (Shigella flexneri) was over 1020 µg/mL. The MIC (Escherichia coli [33]) was over 1020 µg/mL, the MIC (Serratia marcescens) was over 1020 µg/mL and the MBC (Enterococcus faecalis [34]) was over 512 µg/mL. For the same molecule, the MIC (Enterococcus faecalis [35]) was 1 µg/mL, the MBC (Staphylococcus aureus [36]) was 128 µg/mL (≈ 576 µM) and the MIC (Staphylococcus aureus [37]) was over 1020 µg/mL. For the same molecule, the MIC (Streptococcus agalactiae [38]) was 0.25 µg/mL.
